Results published in patent US20260200928A1, “THERAPEUTIC COMPOUNDS” (Sanofi, priority 2022, published 2026).

Biological target: T1, human IL-17A (Homo sapiens, UniProt Q16552)
T1 construct: purchased R&D Systems 7955-IL/CF
T1 sequence (Q16552 24-155): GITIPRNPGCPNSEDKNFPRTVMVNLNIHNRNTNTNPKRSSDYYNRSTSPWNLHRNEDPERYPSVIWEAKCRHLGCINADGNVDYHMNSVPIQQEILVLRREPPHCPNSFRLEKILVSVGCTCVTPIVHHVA
Experiment: IL-17A AlphaLISA competition assay (block of IL-17A binding to its receptor IL-17RA)
Settings: mean IC50 (n≥2), block of IL-17A binding to IL-17RA
Outline: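 Bead-based AlphaLISA competition in PBS with 0.05% Tween-20 and 0.1% BSA: compound first meets human IL-17A (7.5 nM stock) for 30 min, then IL-17RA/Fc (5 nM stock) for 90 min, all at room temperature, before acceptor/donor bead capture. IC50 fitted 4-parameter, DMSO and 4 μM reference inhibitor as controls; at least duplicate.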

SMILES | IC50 [nM]
CCc1conc1C(=O)N[C@H](C(=O)Nc1cc([C@@H](COC)N2C[C@@H](C(F)(F)F)NC2=O)ccn1)[C@H]1CCCC(F)(F)C1 (single isomer, unassigned) [Example 305] | 29
COCC(NC(=O)CCC(F)(F)F)c1ccnc(NC(=O)C(NC(=O)c2ccnn2C(C)C)C2CCC(C)CC2)c1 [Example 246, 1-isopropyl-N-((1S)-2-((4-(2-methoxy-1-(4,4,4-trifluorobutanamido)ethyl)pyridin-2-yl)amino)-1-((1r,4S)-4-methylcyclohexyl)-2-oxoethyl)-1H-pyrazole-5-carboxamide] | 72
C[C@@H]1CN(Cc2ccnc(NC(=O)[C@@H](NC(=O)c3ccnn3C)C(C3CC3)C3CC3)c2)C(=O)N1 [Example 33, N—((S)-1,1-dicyclopropyl-3-((4-(((R)-4-methyl-2-oxoimidazolidin-1-yl)methyl)pyridin-2-yl)amino)-3-oxopropan-2-yl)-1-methyl-1H-pyrazole-5-carboxamide] | 1010
C[C@H]1CC[C@H]([C@H](NC(=O)c2nonc2C2CC2)C(=O)Nc2cc(C(CO)N3C[C@@H](C(F)(F)F)NC3=O)ccn2)CC1 (single isomer, unassigned) [Example 234, 4-Cyclopropyl-N-((1S)-2-((4-((R or S)-2-hydroxy-1-((S)-2-oxo-4-(trifluoromethyl)imidazolidin-1-yl)ethyl)pyridin-2-yl)amino)-1-((1r,4S)-4-methylcyclohexyl)-2-oxoethyl)-1,2,5-oxadiazole-3-carboxamide] | 39
O=C(NCc1ccccc1)N[C@H](C(=O)Nc1cc(CN2C[C@@H](C(F)(F)F)NC2=O)ccn1)C1CCC(F)(F)CC1 [Example 99, (S)-2-(3-Benzylureido)-2-(4,4-difluorocyclohexyl)-N-(4-(((S)-2-oxo-4-(trifluoromethyl)imidazolidin-1-yl)methyl)pyridin-2-yl)acetamide] | 6790
COCC(c1ccnc(NC(=O)[C@@H](NC(=O)C(F)(F)c2ccccc2)[C@H]2CC[C@H](C)CC2)c1)N1C[C@@H](C(F)(F)F)NC1=O (single isomer, unassigned) [Example 150] | 61
CCc1conc1C(=O)N[C@H](C(=O)Nc1cc([C@@H](COC)N2C[C@@H](C(F)(F)F)NC2=O)ccn1)C1CCCC(F)(F)C1 (single isomer, unassigned) [Example 304] | 26
COC[C@H](c1ccnc(NC(=O)[C@@H](NC(=O)c2nonc2C(C)C)C2CCC(F)(F)CC2)c1)N1C[C@@H](C(F)(F)F)NC1=O [Example 195, N-((S)-1-(4,4-difluorocyclohexyl)-2-((4-((S)-2-methoxy-1-((S)-2-oxo-4-(trifluoromethyl)imidazolidin-1-yl)ethyl)pyridin-2-yl)amino)-2-oxoethyl)-4-isopropyl-1,2,5-oxadiazole-3-carboxamide] | 18
COCC(c1ccnc(NC(=O)[C@@H](NC(=O)c2ccnn2C(C)C)[C@H]2CC[C@H](C)CC2)c1)N1C[C@@H](C(F)(F)F)NC1=O (single isomer, unassigned) [Example 87] | 13
Cn1nccc1C(=O)NC(C(=O)Nc1cc(Cc2ccn(C)c(=O)c2)ccn1)C1CCC(F)(F)CC1 (centres unmarked) [Example 54, N-(1-(4,4-difluorocyclohexyl)-2-((4-((1-methyl-2-oxo-1,2-dihydro-pyridin-4-yl)methyl)pyridin-2-yl)amino)-2-oxoethyl)-1-methyl-1H-pyrazole-5-carboxamide] | 4760
Cc1cc(COC(=O)N[C@H](C(=O)Nc2cc(CN3C[C@@H](C(F)(F)F)NC3=O)ccn2)C2CCC(F)(F)CC2)nn1C [Example 60, (1,5-Dimethyl-1H-pyrazol-3-yl)methyl ((S)-1-(4,4-difluorocyclohexyl)-2-oxo-2-((4-(((S)-2-oxo-4-(trifluoromethyl)imidazolidin-1-yl)methyl)pyridin-2-yl)amino)ethyl)carbamate] | 3750
CC(C)(C)OC(=O)NC(C(=O)Nc1cc(CN2C[C@@H](C(F)(F)F)NC2=O)ccn1)C1CCC(F)(F)CC1 (stereo in doubt) [Example 6, Tert-butyl N-[(1S)-1-(4,4-difluorocyclohexyl)-2-oxo-2-[[4-[[(4S)-2-oxo-4-(trifluoro-methyl)imidazolidin-1-yl]methyl]-2-pyridyl]amino]ethyl]carbamate] | 566
CCC(c1ccnc(NC(=O)C(NC(=O)c2nonc2C2CC2)C2CCC(C)CC2)c1)N1CC(C(F)(F)F)NC1=O [Example 257, 4-cyclopropyl-N-((S)-1-((1r,4S)-4-methylcyclohexyl)-2-oxo-2-((4-((R)-1-((S)-2-oxo-4-(trifluoromethyl)imidazolidin-1-yl)propyl)pyridin-2-yl)amino)ethyl)-1,2,5-oxadiazole-3-carboxamide] | 32
CCn1nccc1C(=O)NC(C(=O)Nc1cc([C@@H](COC)N2C[C@@H](C(F)(F)F)NC2=O)ccn1)C1CCC(F)CC1 (single isomer, unassigned) [Example 280] | 65
COCC(c1ccnc(NC(=O)[C@@H](NC(=O)OC(C)(C)C)[C@H]2CC[C@H](C)CC2)c1)N1C[C@@H](C(F)(F)F)NC1=O (single isomer, unassigned) [Example 65, tert-butyl ((S)-2-((4-((S or R)-2-methoxy-1-((S)-2-oxo-4-(trifluoromethyl)imidazolidin-1-yl)ethyl)pyridin-2-yl)amino)-1-((1r,4S)-4-methylcyclohexyl)-2-oxoethyl)carbamate] | 522
Cc1nonc1C(=O)N[C@H](C(=O)Nc1cc(C[C@H]2C[C@@H](C(F)(F)F)NC2=O)ccn1)C1CCC(F)(F)CC1 [Example 221, N-((S)-1-(4,4-difluorocyclohexyl)-2-oxo-2-((4-(((3S,5S)-2-oxo-5-(trifluoromethyl)pyrrolidin-3-yl)methyl)pyridin-2-yl)amino)ethyl)-4-methyl-1,2,5-oxadiazole-3-carboxamide] | 157
CCn1nccc1C(=O)N[C@H](C(=O)Nc1cc(C(NC(=O)CCC(F)(F)F)C2CC2)ccn1)C1CCC(F)(F)CC1 (stereo partly drawn) [Example 108, N-((1S)-2-((4-(cyclopropyl(4,4,4-trifluorobutanamido)methyl)pyridin-2-yl)amino)-1-(4,4-difluorocyclohexyl)-2-oxoethyl)-1-ethyl-1H-pyrazole-5-carboxamide] | 33
COC[C@H](c1ccnc(NC(=O)C(NC(=O)c2nonc2C2CC2)C2CCC(F)CC2)c1)N1C[C@@H](C(F)(F)F)NC1=O (single isomer, unassigned) [Example 278] | 1890
C[C@H](OC(C)(C)C)[C@H](NC(=O)c1nonc1C1CC1)C(=O)Nc1cc(CN2C[C@@H](C(F)(F)F)NC2=O)ccn1 [Example 116, N-((2S,3S)-3-(tert-butoxy)-1-oxo-1-((4-(((S)-2-oxo-4-(trifluoromethyl)-imidazolidin-1-yl)methyl)pyridin-2-yl)amino)butan-2-yl)-4-cyclopropyl-1,2,5-oxadiazole-3-carboxamide] | 15400
Cn1nccc1C(=O)NC(COC(C)(C)C)C(=O)Nc1cc(CN2C[C@@H](C(F)(F)F)NC2=O)ccn1 (stereo partly drawn) [Example 83, N-(3-(tert-butoxy)-1-oxo-1-((4-(((S)-2-oxo-4-(trifluoromethyl)imidazolidin-1-yl)methyl)pyridin-2-yl)amino)propan-2-yl)-1-methyl-1H-pyrazole-5-carboxamide] | 7110
COCC(c1ccnc(NC(=O)[C@@H](NC(=O)c2ncncc2C)[C@H]2CC[C@H](C)CC2)c1)N1C[C@H](C(F)(F)F)NC1=O (stereo partly drawn) [Example 135, N-((1S)-2-((4-(2-methoxy-1-((S)-2-oxo-4-(trifluoromethyl)imidazolidin-1-yl)ethyl)pyridin-2-yl)amino)-1-((1r,4S)-4-methylcyclohexyl)-2-oxoethyl)-5-methylpyrimidine-4-carboxamide] | 1460
COC[C@H](c1ccnc(NC(=O)[C@@H](NC(=O)c2nocc2C)C2CCC(F)(F)CC2)c1)N1C[C@@H](C(F)(F)F)NC1=O [Example 196, N-((S)-1-(4,4-difluorocyclohexyl)-2-((4-((S)-2-methoxy-1-((S)-2-oxo-4-(trifluoromethyl)imidazolidin-1-yl)ethyl)pyridin-2-yl)amino)-2-oxoethyl)-4-methylisoxazole-3-carboxamide] | 39
O=C(N[C@H](C(=O)Nc1cc(C[C@H]2C[C@@H](C(F)(F)F)NC2=O)ccn1)C1CCC(F)(F)CC1)c1nonc1C1CC1 [Example 222, 4-cyclopropyl-N-((S)-1-(4,4-difluorocyclohexyl)-2-oxo-2-((4-(((3S,5S)-2-oxo-5-(trifluoromethyl)pyrrolidin-3-yl)methyl)pyridin-2-yl)amino)ethyl)-1,2,5-oxadiazole-3-carboxamide] | 70
CCn1nccc1C(=O)N[C@H](C(=O)Nc1cc(C[C@@H]2C[C@@H](C(F)(F)F)NC2=O)ccn1)[C@H]1CC[C@H](C)CC1 [Example 153, 1-ethyl-N—((S)-1-((1r,4S)-4-methylcyclohexyl)-2-oxo-2-((4-(((3R,5S)-2-oxo-5-(trifluoromethyl)pyrrolidin-3-yl)methyl)pyridin-2-yl)amino)ethyl)-1H-pyrazole-5-carboxamide] | 171
Cn1nccc1C(=O)NC(C(=O)Nc1cc(Cc2ccc(=O)n(C)c2)ccn1)C1CCC(F)(F)CC1 (centres unmarked) [Example 52, N-(1-(4,4-difluorocyclohexyl)-2-((4-((1-methyl-6-oxo-1,6-dihydro-pyridin-3-yl)methyl)pyridin-2-yl)amino)-2-oxoethyl)-1-methyl-1H-pyrazole-5-carboxamide] | 23900
Cn1nccc1C(=O)NC(C(=O)Nc1cc(CN2CC(C(F)(F)F)NC2=O)ccn1)C1CCC(F)CC1 [Example 294, N-((S)-1-((1r,4S)-4-fluorocyclohexyl)-2-oxo-2-((4-(((S)-2-oxo-4-(trifluoromethyl)imidazolidin-1-yl)methyl)pyridin-2-yl)amino)ethyl)-1-methyl-1H-pyrazole-5-carboxamide] | 374
